# How the values were obtained:
# IFN-beta [1] = target: T1, IFN-beta (Homo sapiens, UniProt P01574, C38S); assay: Keeping IFN-beta soluble as guanidine HCl is removed by dialysis; supernatant and pellet analysed by SDS-PAGE and silver stain; assay type: physicochemical; parameters: key to Successful (+)/ Unsuccessful (-): Successful (+); Unsuccessful (-); conditions: for Successful (+)/ Unsuccessful (-): dialysis against sodium phosphate buffer pH 5.0; for keeping IFN-beta in solution: 15% PEG300, 25% glycerol, 50% sucrose, 20% isopropanol
# T1 construct: made in house; host or cells: E. coli K12/MM294-1 carrying plasmid pSY2501 (ATCC 39,517)
# Experimental: At this point, a stabilizing additive was added to the oxidized IFN-beta material while guanidine HCl is still present, and the solution was dialyzed to remove the guanidine. The solubilized, oxidized material was divided into aliquots and a different stabilizing agent or a non-ionic detergent was added to each aliquot. A summary of the stabilizing agents and non-ionic detergents used in this example, as well as the concentration used, is provided in Table 1.
# Each aliquot was dialyzed against 20-50 mM sodium phosphate buffer, pH 5.0 containing the appropriate stabilizer or detergent. […] Dialysis was run at pH 5.0 because rIFN-beta is more soluble at low pH than at neutral or higher pH. As the guanidine HCl was dialyzed from the sample, a precipitate formed. The aliquots were centrifuged at 5,000 x g for 15 min and both the supernatant and the pellet, resuspended in 1% SDS, were saved. The supernatant and resuspended pellet were analyzed by SDS-PAGE (PHAST system by Pharmacia) and silver stain to locate the rIFN-beta.
# IFN-beta [2] = target: T1, IFN-beta; assay: Absorbance at 280 nm in supernatant after dialysis against glycerol, with varied concentration and pH; assay type: physicochemical; conditions: for % A₂₈₀ in Supernatant: 25 mM NaPi
# T1 sequence (P01574 23-187 C38S limits assumed): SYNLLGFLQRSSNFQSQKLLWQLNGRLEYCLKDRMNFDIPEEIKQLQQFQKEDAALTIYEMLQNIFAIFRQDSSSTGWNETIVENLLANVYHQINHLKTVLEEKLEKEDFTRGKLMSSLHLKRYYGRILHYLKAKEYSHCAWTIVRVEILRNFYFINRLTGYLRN
compound,measurement,setting,value
OCCO [Ethylene Glycol],Successful (+)/ Unsuccessful (-),IFN-beta [1]; reagent at 20%,-
"CCC(O)CO (centres unmarked) [1,2-butanediol]",Successful (+)/ Unsuccessful (-),IFN-beta [1]; reagent at 20%,-
CC(O)CO (centres unmarked) [Propylene Glycol],Successful (+)/ Unsuccessful (-),IFN-beta [1]; reagent at 20%,-
Tween® 80,"keeping IFN-beta in solution, detergent combined with glycerol","IFN-beta [1]; 0.01% detergent with 25% glycerol at pH 4, A280 and SDS-PAGE",keep most of the IFN-beta in solution
OCC(O)CO [Glycerol],keeping IFN-beta in solution,IFN-beta [1],keep IFN-beta in solution
same,% A₂₈₀ in Supernatant,"IFN-beta [2]; 25%, pH 4",31%
same,% A₂₈₀ in Supernatant,"IFN-beta [2]; 25%, pH 5",13%
same,% A₂₈₀ in Supernatant,"IFN-beta [2]; 50%, pH 4",86%
same,% A₂₈₀ in Supernatant,"IFN-beta [2]; 50%, pH 5",50%
same,IFN-beta solubility on adjusting concentration and pH,IFN-beta [2]; concentration increased to 50% and pH lowered to 4,greater IFN-beta solubility
OC[C@H]1O[C@@](CO)(O[C@H]2O[C@H](CO)[C@@H](O)[C@H](O)[C@H]2O)[C@@H](O)[C@@H]1O [Sucrose],keeping IFN-beta in solution,IFN-beta [1],keep IFN-beta in solution
CC(C)O [Isopropanol],keeping IFN-beta in solution,IFN-beta [1],keep IFN-beta in solution
same,Successful (+)/ Unsuccessful (-),IFN-beta [1]; reagent at 50%,+
"OCC(O)COc1ccccc1 (centres unmarked) [3-phenoxy-1,2-propanediol]",Successful (+)/ Unsuccessful (-),IFN-beta [1]; reagent at 5%,-

# — patent publication EP0360937B1, “Improved process for recovering microbially produced interferonbeta” (CETUS ONCOLOGY CORPORATION, priority 1988, dated 1990)
